# Reference: patent US20250170141A1, “MRGPRX2 MODULATORS AND RELATED METHODS OF TREATMENT” (Escient Pharmaceuticals, Inc., priority 2023, published 2025)
# Biological target: T1, human MRGPRX2 (Homo sapiens, UniProt Q96LB1)
# T1 construct: expressed in transfected cells; host or cells: CHO cells, stably transfected (G418 and Hygromycin B selection)
# T1 sequence (Q96LB1 1-330): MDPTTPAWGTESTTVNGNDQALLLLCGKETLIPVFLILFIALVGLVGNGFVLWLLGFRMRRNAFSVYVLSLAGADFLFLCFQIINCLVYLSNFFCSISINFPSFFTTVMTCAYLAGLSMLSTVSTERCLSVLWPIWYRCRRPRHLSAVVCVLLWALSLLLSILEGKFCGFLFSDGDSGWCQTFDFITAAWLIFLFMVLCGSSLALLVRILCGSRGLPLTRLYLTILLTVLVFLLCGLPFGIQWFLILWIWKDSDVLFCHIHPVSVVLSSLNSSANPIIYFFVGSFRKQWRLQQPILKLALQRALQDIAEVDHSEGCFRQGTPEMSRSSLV
# Test: MRGPRX2 activity: IP-One Gq HTRF assay in CHO cells, antagonism versus 0.3 uM Cortistatin-14
# Assay type: cell-based
# Settings: versus 0.3 uM Cortistatin-14 agonist, CHO cells expressing human MRGPRX2, read-out: MRGPRX2 Antagonist Activity
# How it was run: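 Antagonist IC50 was derived from the HTRF IP-1 signal after co-addition of compounds (10 points, top 30 uM, 3-fold steps) and 0.3 μM Cortistatin-14 agonist to human MRGPRX2-expressing CHO cells. Assay buffer contained 50 mM LiCl, pH 8; plates sat 1 h at 37 °C, then 1 h at room temperature.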
row,IC50 [nM],SMILES
1,< 100,"O=S1(=O)N=C(NCc2cccnc2F)Nc2c(Cc3ccccc3Cl)cccc21 [Compound 12-28, 5-(2-chlorobenzyl)-3-(((2-fluoropyridin-3-yl)methyl)amino)-4H-benzo[e][1,2,4]thiadiazine 1,1-dioxide]"
2,< 100,"Cc1ccc(CNC2=NS(=O)(=O)c3cccc(Cc4ccccc4Cl)c3N2)c(C)c1 [Compound 12-8, 5-(2-chlorobenzyl)-3-((2,4-dimethylbenzyl)amino)-4H-benzo[e][1,2,4]thiadiazine 1,1-dioxide]"
3,< 100,"O=S1(=O)N=C(NCc2ccccc2C(F)(F)F)Nc2c(Cc3ccccc3Cl)cccc21 [Compound 12-27, 5-(2-chlorobenzyl)-3-((2-(trifluoromethyl)benzyl)amino)-4H-benzo[e][1,2,4]thiadiazine 1,1-dioxide]"
4,< 100,"CC(c1ccc(F)c(C#N)c1)c1c(F)ccc2c1NC(NCc1cccc(F)c1)=NS2(=O)=O (stereo not drawn) [Compound 22-27, 2-fluoro-5-(1-(6-fluoro-3-((3-fluorobenzyl)amino)-1,1-dioxido-4H-benzo[e][1,2,4]thiadiazin-5-yl)ethyl)benzonitrile]"
5,< 100,"O=S1(=O)N=C(NCc2ccncc2F)Nc2c(Cc3ccccc3Cl)cccc21 [Compound 12-23, 5-(2-chlorobenzyl)-3-(((3-fluoropyridin-4-yl)methyl)amino)-4H-benzo[e][1,2,4]thiadiazine 1,1-dioxide]"
6,< 100,"O=C(c1ccccc1Cl)c1cccc2c1NC(NCc1ncccc1Cl)=NS2(=O)=O [Compound 16-1, (2-chlorophenyl)(3-(((3-chloropyridin-2-yl)methyl)amino)-1,1-dioxido-4H-benzo[e][1,2,4]thiadiazin-5-yl)methanone]"
7,< 100,"CC(Cc1ccc(F)cc1)c1c(F)ccc2c1NC(NCc1cccc(F)c1)=NS2(=O)=O (stereo not drawn) [Compound 22-17, 6-fluoro-3-((3-fluorobenzyl)amino)-5-(1-(4-fluorophenyl)propan-2-yl)-4H-benzo[e][1,2,4]thiadiazine 1,1-dioxide]"
8,< 100,"COc1cccnc1CNC1=NS(=O)(=O)c2cccc(Cc3ccccc3Cl)c2N1 [Compound 12-25, 5-(2-chlorobenzyl)-3-(((3-methoxypyridin-2-yl)methyl)amino)-4H-benzo[e][1,2,4]thiadiazine 1,1-dioxide]"
9,< 100,"C=C(c1ccccc1F)c1cccc2c1NC(NCc1ncccc1Cl)=NS2(=O)=O [Compound 13-1, 3-(((3-chloropyridin-2-yl)methyl)amino)-5-(1-(2-fluorophenyl)vinyl)-4H-benzo[e][1,2,4]thiadiazine 1,1-dioxide]"
10,< 100,"COc1ccccc1CNC1=NS(=O)(=O)c2cccc(Cc3ccccc3Cl)c2N1 [Compound 12-24, 5-(2-chlorobenzyl)-3-((2-methoxybenzyl)amino)-4H-benzo[e][1,2,4]thiadiazine 1,1-dioxide]"
11,100 to 500,"CC(c1ccc(S(C)(=O)=O)cc1)c1c(F)ccc2c1NC(NCc1cccc(F)c1)=NS2(=O)=O (stereo not drawn) [Compound 22-20, 6-fluoro-3-((3-fluorobenzyl)amino)-5-(1-(4-(methylsulfonyl)phenyl)ethyl)-4H-benzo[e][1,2,4]thiadiazine 1,1-dioxide]"

# Further lines, the molecule ahead of its results:
row,SMILES,IC50 [nM]
1,"O=S1(=O)N=C(NCc2ncccc2O)Nc2c1cc(F)c(F)c2Cc1ccccc1Cl [Compound 4-18, 5-(2-chlorobenzyl)-6,7-difluoro-3-(((3-hydroxypyridin-2-yl)methyl)amino)-4H-benzo[e][1,2,4]thiadiazine 1,1-dioxide]",> 2500
2,"COc1cccnc1CNC1=NS(=O)(=O)c2ccc(F)c(Oc3ccccc3Cl)c2N1 [Compound 1-30, 5-(2-chlorophenoxy)-6-fluoro-3-(((3-methoxypyridin-2-yl)methyl)amino)-4H-benzo[e][1,2,4]thiadiazine 1,1-dioxide]",100 to 500
3,"O=S1(=O)N=C(NCc2ccccc2F)Nc2c(Cc3cccc(F)c3)cccc21 [Compound 6-8, 5-(3-fluorobenzyl)-3-((2-fluorobenzyl)amino)-4H-benzo[e][1,2,4]thiadiazine 1,1-dioxide]",< 100
4,"O=S1(=O)N=C(NCc2ncccc2F)Nc2c1cc(F)c(Cl)c2Oc1ccccc1Cl [Compound 1-48, 6-chloro-5-(2-chlorophenoxy)-7-fluoro-3-(((3-fluoropyridin-2-yl)methyl)amino)-4H-benzo[e][1,2,4]thiadiazine 1,1-dioxide]",< 100
5,"O=S1(=O)N=C(NCc2ncccc2F)Nc2c1ccc(Cl)c2Oc1cccc(Cl)c1Cl [Compound 1-50, 6-chloro-5-(2,3-dichlorophenoxy)-3-(((3-fluoropyridin-2-yl)methyl)amino)-4H-benzo[e][1,2,4]thiadiazine 1,1-dioxide]",< 100
6,"CC(c1ccccc1F)c1c(F)ccc2c1NC(NCc1cc(Cl)cc(Cl)c1)=NS2(=O)=O (stereo not drawn) [Compound 7-8, 3-((3,5-dichlorobenzyl)amino)-6-fluoro-5-(1-(2-fluorophenyl)ethyl)-4H-benzo[e][1,2,4]thiadiazine 1,1-dioxide]",< 100
7,"[2H]C([2H])(NC1=NS(=O)(=O)c2ccc(F)c(Oc3ccccc3Cl)c2N1)c1ccccc1 [Compound 1-44, 5-(2-chlorophenoxy)-6-fluoro-3-((phenylmethyl-d2)amino)-4H-benzo[e][1,2,4]thiadiazine 1,1-dioxide]",100 to 500
8,"O=S1(=O)N=C(NCc2ncccc2Cl)Nc2c1cc(F)c(F)c2Oc1ccccc1Cl [Compound 1-6, 5-(2-chlorophenoxy)-3-(((3-chloropyridin-2-yl)methyl)amino)-6,7-difluoro-4H-benzo[e][1,2,4]thiadiazine 1,1-dioxide]",< 100
9,"O=S1(=O)N=C(NCc2ncccc2F)Nc2c1ccc(F)c2Oc1cccc(Cl)c1Cl [Compound 1-10, 5-(2,3-dichlorophenoxy)-6-fluoro-3-(((3-fluoropyridin-2-yl)methyl)amino)-4H-benzo[e][1,2,4]thiadiazine 1,1-dioxide]",< 100
10,"O=S1(=O)N=C(N2CCc3cccnc3C2)Nc2c1ccc(F)c2Oc1ccccc1Cl [Compound 1-52, 5-(2-chlorophenoxy)-3-(5,8-dihydro-1,7-naphthyridin-7(6H)-yl)-6-fluoro-4H-benzo[e][1,2,4]thiadiazine 1,1-dioxide]",> 2500
11,"N#Cc1cccc(Cc2cccc3c2NC(NCc2ccccc2F)=NS3(=O)=O)c1 [Compound 6-12, 3-((3-((2-fluorobenzyl)amino)-1,1-dioxido-4H-benzo[e][1,2,4]thiadiazin-5-yl)methyl)benzonitrile]",< 100
12,"O=S1(=O)N=C(NCc2ncccc2F)Nc2c1ccc(F)c2Oc1ccc(F)cc1 [Compound 2-7, 6-fluoro-5-(4-fluorophenoxy)-3-(((3-fluoropyridin-2-yl)methyl)amino)-4H-benzo[e][1,2,4]thiadiazine 1,1-dioxide]",100 to 500
13,"Cc1cc(F)c(Oc2ccccc2Cl)c2c1S(=O)(=O)N=C(NCc1ncccc1F)N2 [Compound 1-45, 5-(2-chlorophenoxy)-6-fluoro-3-(((3-fluoropyridin-2-yl)methyl)amino)-8-methyl-4H-benzo[e][1,2,4]thiadiazine 1,1-dioxide]",100 to 500
14,"O=S1(=O)N=C(NCc2ccc(F)cc2)Nc2c1ccc(F)c2Oc1ccccc1Cl [Compound 1-12, 5-(2-chlorophenoxy)-6-fluoro-3-((4-fluorobenzyl)amino)-4H-benzo[e][1,2,4]thiadiazine 1,1-dioxide]",100 to 500
15,"O=S1(=O)N=C(NCc2ccccc2F)Nc2c(Cc3ccccc3)cccc21 [Compound 6-3, 5-benzyl-3-((2-fluorobenzyl)amino)-4H-benzo[e][1,2,4]thiadiazine 1,1-dioxide]",< 100
16,"O=S1(=O)N=C(NCc2cccc(Cl)c2F)Nc2c1ccc(F)c2Cc1ccccc1Cl [Compound 4-3, 3-((3-chloro-2-fluorobenzyl)amino)-5-(2-chlorobenzyl)-6-fluoro-4H-benzo[e][1,2,4]thiadiazine 1,1-dioxide]",< 100
17,"O=S1(=O)N=C(NCc2ncccc2F)Nc2c1cc(F)c(F)c2Oc1ccccc1Cl [Compound 1-5, 5-(2-chlorophenoxy)-6,7-difluoro-3-(((3-fluoropyridin-2-yl)methyl)amino)-4H-benzo[e][1,2,4]thiadiazine 1,1-dioxide]",< 100
18,"CC(c1ccccc1F)c1c(F)ccc2c1NC(NCc1ccccc1)=NS2(=O)=O (stereo not drawn) [Compound 7-4, 3-(benzylamino)-6-fluoro-5-(1-(2-fluorophenyl)ethyl)-4H-benzo[e][1,2,4]thiadiazine 1,1-dioxide]",< 100
19,"O=S1(=O)N=C(NCc2ncccc2F)Nc2c1ccc(F)c2CCc1ccccc1Cl [Compound 11-1, 5-(2-chlorophenethyl)-6-fluoro-3-(((3-fluoropyridin-2-yl)methyl)amino)-4H-benzo[e][1,2,4]thiadiazine 1,1-dioxide]",100 to 500
20,"COc1ccc(Cc2cccc3c2NC(NCc2ccccc2F)=NS3(=O)=O)cc1 [Compound 6-15, 3-((2-fluorobenzyl)amino)-5-(4-methoxybenzyl)-4H-benzo[e][1,2,4]thiadiazine 1,1-dioxide]",100 to 500
21,"CC(c1ccccc1F)c1c(F)ccc2c1NC(NCc1ccc(F)cc1F)=NS2(=O)=O (stereo not drawn) [Compound 7-6, 3-((2,4-difluorobenzyl)amino)-6-fluoro-5-(1-(2-fluorophenyl)ethyl)-4H-benzo[e][1,2,4]thiadiazine 1,1-dioxide]",< 100
22,"O=S1(=O)N=C(NCc2ncccc2Cl)Nc2c1ccc(F)c2Oc1ccccc1Cl [Compound 2-2, 5-(2-chlorophenoxy)-3-(((3-chloropyridin-2-yl)methyl)amino)-6-fluoro-4H-benzo[e][1,2,4]thiadiazine 1,1-dioxide]",< 100
